{"source": "patent US20220072101A1", "about": "“HARNESSING INFLAMMATION TO TREAT NEURODEVELOPMENTAL DISORDERS” (President and Fellows of Harvard College, priority 2019, published 2022)", "key": {"BBB": {"system": "BBB", "assay": "BBB permeability (Evans blue)", "format": "in vivo, mouse", "protocol": "BBB permeability was assessed with Evans blue (Sigma Aldrich®). The Evans blue dye binds to serum albumin (69,000 Da) to become a high-molecular-weight protein tracer. Mice were injected with 100 μl of Evans blue solution (10 mg/kg in PBS) intravenously. After 30 min, all injected mice were sacrificed. Whole brains were then removed and photographed. The brain tissues were disrupted in lysis buffer at full speed for 60 seconds using a Micro-Homogenizer (VWR International®). The fluorescence was determined using a Spectrophotometer (BioTek Instruments®) with excitation at 620 nm and emission at 680 nm."}, "MIA offspring [1]": {"system": "MIA offspring", "assay": "Reciprocal social interaction assay", "format": "in vivo, mouse", "conditions": "four hours after LPS", "protocol": "Four hours prior to testing, mice were injected with vehicle or LPS. Two unfamiliar mice of the same treatment and background were placed in a fresh mouse cage and allowed to freely interact for 10 min. Videos were acquired using IC Capture (The Imaging Source®) at 640×480 aspect ratio and 25 fps. Social interaction (close following, push-crawl, nose-nose sniffing, and nose-anus sniffing) was scored by an observer blind to treatment and background^27."}, "S1DZ neurons": {"system": "S1DZ neurons", "assay": "In vivo electrophysiology, firing rate of S1DZ neurons in awake mice", "parameters": "species or system mouse", "protocol": "Electrophysiological experiments were conducted in head-fixed mice trained to walk on a rotating running wheel. Prior to training, mice were implanted with custom crowns permitting head-fixing above the wheel and allowed to recover for one week before training. Mice were trained to walk on the wheel for three 10 min sessions daily for at least one week. Following training, mice were implanted with a multi-electrode array targeting the S1DZ and allowed to recover before testing. To assess IL-17a dependence of LPS-induced changes in neural activity, mice were injected i.p. with control antibodies or blocking antibody against IL-17a (1 mg/mouse), 30 min prior to i.p. vehicle or LPS injection. Baseline neural activity was measured while mice were running on the wheel immediately prior to the first injection. Following the first injection, mice were returned to their home cage. Post-injection (Test) neural activity during wheel running was measured 4 hrs after vehicle or LPS injection.\nCustom multi-electrode array scaffolds (drive bodies) were designed using 3D CAD software (SolidWorks®) and printed in Accura 55 Plastic™ (American Precision Prototyping®) as described previously^31,32. […]\nFiring rate was calculated across one second time windows during which animals were walking stably on the rotating wheel averaged across 25-50 trials per condition. […]"}, "MIA offspring [2]": {"system": "MIA offspring", "assay": "Marble burying assay", "format": "in vivo, mouse", "conditions": "four hours after LPS", "protocol": "On day 1, mice were tested for their baseline marble burying phenotype. On day 2, four hours prior to beginning the marble burying assay, mice were treated with either LPS or vehicle. Marble burying assay was carried out as described previously^8. Mice were placed into testing arenas (arena size: 40 cm×20 cm×30 cm, bedding depth: 3 cm) each containing 20 glass marbles (laid out in four rows of five marbles equidistant from one another). At the end of the 15 min exploration period mice were carefully removed from the testing cages and the number of marbles buried was recorded. The marble burying index was arbitrarily defined as the following: 1 for marbles covered >50% with bedding, 0.5 for marbles covered <50% with bedding, or 0 for anything less."}, "[3]": {"system": "Cntnap2, Fmr1, and Shank3 mutant mice", "assay": "Three-chamber social approach assay in monogenic mutant mice", "format": "in vivo, mouse", "conditions": "Cntnap2, Fmr1 and Shank3 mutant mice; LPS i.p.; 4 hours", "protocol": "All experiments were performed according to Guide for the Care and Use of Laboratory Animals and were approved by the National Institutes of Health and the Committee on Animal Care at Massachusetts Institute of Technology. C57BL/6 were purchased from Taconic Biosciences for generating PBS and MIA offspring. Vgat-Cre (028862) were purchased from Jackson Laboratories and inbred. For monogenic experiments, C57BL/6, Cntnap2 (017482), Fmr1 (003025), and Shank3 (017688) mice were purchased from Jackson Laboratories and inbred after colonizing with SFB from donor mice. IL-17Ra^fl/fl and IL-17RaKO were previously described^24,25. All mice were males aged 2-5 months, unless otherwise specified.\nAdult male mice were assayed for sociability using a three-chamber social approach assay. The arena was constructed of white acrylic (50 cm×35 cm×30 cm). Wire cups (Spectrum Diversified®) were placed in the back left and right corner of the arena beneath water-filled 1 L bottles (Nalgene®). On day 0, mice were habituated to the arena for 10 min. Immediately following habituation, mice were singly housed. On day 1 (Pre), mice were placed in the center of the arena and allowed to freely explore. Following 10 min, mice were confined to the center of the arena. An inanimate object (rubber stopper) or a male conspecific were placed beneath the wire cups. Placement of the inanimate object and social target were alternated. Mice were then allowed to freely explore the arena for 10 min. Interaction time was defined as time spent in the areas circumscribing the wire cups (<2 cm). Sociability was defined as interaction time with the social target divided by total interaction time and expressed as a percentage. For experiments involving LPS injections, mice were injected with either saline (Veh) or LPS ([…], i.p., L2630, Sigma) on day 2 (Test), four hours prior to testing. For the experiment assaying sociability 72 hrs following LPS injection, mice used for 4 hr LPS sociability experiments were tested for sociability again at 72 hrs. […]"}, "[4]": {"system": "layer 2/3 pyramidal neurons in S1DZ", "assay": "Whole-cell patch clamp recordings in brain slices of Veh- or LPS-injected MIA offspring", "format": "in vivo, mouse", "conditions": "S1DZ pyramidal neurons from LPS-injected MIA offspring"}}, "data": [{"substance": "lipopolysaccharide [LPS]", "values": [{"measurement": "BBB permeability (leakage of i.v. Evans Blue into the brain)", "setting": "BBB; MIA offspring, LPS 3.5 hr before Evans Blue", "result": "can increase BBB permeability"}, {"measurement": "LPS-induced increase in EB leakage in knockout animals", "setting": "BBB; animals genetically deficient for IFNγ or IL-17a", "result": "prevented in animals genetically deficient for IFNγ, but not IL-17a"}, {"measurement": "reciprocal social interaction", "setting": "MIA offspring [1]", "result": "rescue of MIA sociability deficits was also evident"}, {"measurement": "overall firing rate of S1DZ neurons", "setting": "S1DZ neurons; MIA offspring, 4 hrs after LPS", "result": "a decrease in overall firing rate was observed"}, {"measurement": "firing rate in the S1DZ", "setting": "S1DZ neurons; control (PBS) offspring", "result": "Neither LPS nor IL-17a blocking antibody treatment changed the firing rate"}, {"measurement": "marble burying behavior", "setting": "MIA offspring [2]", "result": "rescued an enhanced marble burying behavior"}, {"measurement": "sociability after LPS", "setting": "[3]", "result": "failed to restore sociability in mutant mice deficient for Cntnap2, Fmr1, and Shank3"}, {"measurement": "spiking in response to depolarizing current injections", "setting": "[4]", "result": "reduced spiking in response to depolarizing current injections"}]}]}
